Assay results reported in patent US7652047B2, “Phenylamino isothiazole carboxamidines as MEK inhibitors” (Ardea Biosciences, Inc., priority 2005, dated 2010).

Biological target: T1, MEK1^CA (human GST-MEK1, constitutively active, Ser218Asp and Ser222Asp) (Homo sapiens, UniProt Q02750, S218D/S222D)
T1 construct: GST; made in house; host or cells: Escherichia coli
Experiment: MEK1 enzymatic activity assay (MEK1^CA / ERK2 / MBP, [γ-33P]ATP incorporation)
Type: biochemical
Conditions: Table 1, compounds of formula I; read-out: Avg IC50
Excerpt: Materials and preparation of reagents: Human GST-MEK1 and the constitutively active allele GST-MEK1^CA (harboring the mutations Ser218Asp and Ser222Asp) were subcloned into the […] expression vector pGEM4Z (Promega, Madison, Wis.) from the wild type human MEK1 cDNA. GST-MEK1^CA was expressed in Escherichia coli and partially purified using Glutathione Sepharose 4B affinity resin (Amersham Pharmacia Biotech, Piscataway, N.J.). The ERK2 allele was subcloned from MAPK2/Erk2 cDNA (wild type) in pUSEamp (Upstate Biotechnology, Inc., Waltham, Mass.) into the vector pET21a (Novagen, Madison, Wis.) resulting in an N-terminal histidine-tagged mouse ERK2 allele. […] Myelin basic protein (MBP) was purchased from Gibco BRL (Rockville, Md.). EasyTides adenosine 5′-triphosphate (ATP) ([γ-^33P]) (NEN Perkin Elmer, Wellesley, Mass.) was the source of radiolabel for all kinase reactions. Activated Raf-1 (truncated) and activated MAPKinase 2/ERK2 were purchased from Upstate, Inc. (Lake Placid, N.Y.). 4-20% Criterion Precast gels were purchased from Bio-Rad (Hercules, Calif.).
A typical 25-microliter assay contained 0.002 nanomoles MEK1^CA, 0.02 nanomoles ERK2, 0.25 nanomoles MBP, 0.25 nanomoles unlabeled ATP, and 0.1 μCi [γ^33P] ATP. The screening assay essentially comprised four additions. Five μl of diluted compound were dispensed to 96-well assay plates. Ten μl of 2.5× enzyme cocktail (MEK1^CA and ERK2 only) were then added to each well followed by a pre-incubation for 30 minutes at ambient temperature. […] Finally, 100 μl of 10% trichloroacetic acid (TCA) were added and incubated for 30 minutes at room temperature to halt the reaction and precipitate radiolabeled protein products. Reaction products were harvested on glass fiber 96 well filter plates prewetted with water and 1% pyrophosphate. The filter plate was then washed 5 times with water. Water was displaced by absolute ethanol and the plate was allowed to air dry for 30 minutes at room temperature. A back seal was applied manually and 40 μl of scintillation cocktail were dispensed to each well. A top seal was applied and the plate was counted in the TopCount for two seconds per well.

T1 sequence (Q02750 whole entry S218D/S222D): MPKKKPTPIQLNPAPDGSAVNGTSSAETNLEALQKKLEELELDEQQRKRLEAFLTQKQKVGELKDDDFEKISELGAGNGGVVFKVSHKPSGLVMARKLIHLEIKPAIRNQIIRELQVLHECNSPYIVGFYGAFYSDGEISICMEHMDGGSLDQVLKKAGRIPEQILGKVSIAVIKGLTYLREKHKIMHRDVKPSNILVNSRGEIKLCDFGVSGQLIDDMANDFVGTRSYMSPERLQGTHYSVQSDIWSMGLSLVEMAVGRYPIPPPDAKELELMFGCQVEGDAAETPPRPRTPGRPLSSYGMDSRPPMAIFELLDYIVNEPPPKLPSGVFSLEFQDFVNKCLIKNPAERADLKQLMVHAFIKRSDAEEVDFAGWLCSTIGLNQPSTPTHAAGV

IC50 [nM] | Structure (SMILES)
100 to 500 | CC(C)NC(=N)c1c(O)nsc1Nc1ccc(Oc2cccc(N(C)C)c2)cc1 [compound 260]
1 to 100 | N=C(NO)c1c(O)nsc1Nc1ccc(Oc2ccccc2)cc1 [compound 130]
1 to 100 | Cc1cccc(Oc2ccc(Nc3snc(O)c3C(=N)NC(C)C)cc2)c1C [compound 345]
100 to 500 | CC(C)(C)CCNC(=N)c1c(O)nsc1Nc1ccc(Oc2ccccc2)cc1 [compound 41]
100 to 500 | CC(CO)NC(=N)c1c(O)nsc1Nc1ccc(Oc2c(F)ccc(F)c2Cl)cc1 (stereo not shown) [compound 323]
1 to 100 | CCOCCCNC(=N)c1c(O)nsc1Nc1ccc(Oc2ccccc2)cc1 [compound 49]
1 to 100 | Cc1ccc(Cl)c(Oc2ccc(Nc3snc(O)c3C(=N)NC(C)CO)cc2)c1 (stereo not shown) [compound 288]
> 500 | N=C(NCC(O)CO)c1c(O)nsc1Nc1ccc(-c2nc3ccccc3[nH]2)cc1 (stereo not shown) [compound 512]
1 to 100 | CC(C)NC(=N)c1c(O)nsc1Nc1ccc(Oc2cc(C(F)(F)F)ccc2F)cc1 [compound 355]
1 to 100 | COC(=O)c1ccccc1Oc1ccc(Nc2snc(O)c2C(=N)NC(C)C)cc1 [compound 487]
1 to 100 | C[C@@H](CO)NC(=N)c1c(O)nsc1Nc1ccc(Oc2ccccc2)cc1 [compound 174]
100 to 500 | CC(C)NC(=N)c1c(O)nsc1Nc1ccc(Oc2cc(F)cc(C(F)(F)F)c2)cc1 [compound 358]
> 500 | CC(CO)NC(=N)c1c(O)nsc1Nc1ccc(-c2nc3ccccc3[nH]2)cc1 (stereo not shown) [compound 509]
100 to 500 | CCC[C@H]1CC[C@H](c2ccc(Nc3snc(O)c3C(=N)NC(C)C)cc2)CC1 [compound 160]
> 500 | CC(CO)NC(=N)c1c(O)nsc1Nc1ccc(OCc2ccccc2)cc1 (stereo not shown) [compound 265]
> 500 | CC(C)NC(=N)c1c(O)nsc1Nc1ccc(S(=O)(=O)c2ccccc2)cc1 [compound 244]
1 to 100 | N=C(NC(CO)CO)c1c(O)nsc1Nc1ccc(Oc2ccccc2)cc1 [compound 164]
100 to 500 | Cc1cc(C)cc(Oc2ccc(Nc3snc(O)c3C(=N)NC(C)CO)cc2)c1 (stereo not shown) [compound 268]
100 to 500 | CC(C)NC(=N)c1c(O)nsc1Nc1ccc(C(=O)c2ccccc2)cc1 [compound 234]
> 500 | N#CNC(=N)c1c(O)nsc1Nc1ccc(Oc2ccccc2)cc1 [compound 162]
100 to 500 | CC(CO)NC(=N)c1c(O)nsc1Nc1ccc(/C=C/c2ccccc2)cc1 (stereo not shown) [compound 240]
1 to 100 | N=C(NCCO)c1c(O)nsc1Nc1ccc(Oc2ccccc2)cc1 [compound 33]
1 to 100 | Cc1cc(Oc2ccccc2)ccc1Nc1snc(O)c1C(=N)NC(C)CO (stereo not shown) [compound 335]
1 to 100 | CC(CO)NC(=N)c1c(O)nsc1Nc1ccc(Oc2cccc(F)c2)cc1 (stereo not shown) [compound 273]
100 to 500 | N=C(NCC(O)CO)c1c(O)nsc1Nc1ccc(Cc2ccccc2)cc1 (stereo not shown) [compound 129]
100 to 500 | CC(C)NC(=N)c1c(O)nsc1Nc1ccc(Oc2ccc(F)cc2)c(Cl)c1 [compound 387]
100 to 500 | CC(C)NC(=N)c1c(O)nsc1Nc1ccc(Oc2cc(C(F)(F)F)ccc2Cl)cc1 [compound 294]
> 500 | CC(CO)NC(=N)c1c(O)nsc1Nc1ccc(Oc2ccc(S(C)(=O)=O)cc2)cc1 (stereo not shown) [compound 491]
100 to 500 | N=C(NCC(O)O)c1c(O)nsc1Nc1ccc(Oc2ccccc2Cl)cc1 [compound 210]
100 to 500 | C[C@H](NC(=N)c1c(O)nsc1Nc1ccc(Oc2ccccc2)cc1)c1ccccc1 [compound 34]

Second part, the molecule before the results:

Structure (SMILES) | IC50 [nM]
N=C(NCC1CCCCC1)c1c(O)nsc1NC12CC3CC(CC(C3)C1)C2 [compound 92] | > 500
CCC(CO)NC(=N)c1c(O)nsc1Nc1ccc(Oc2cccc(C(F)(F)F)c2)cc1C (stereo not shown) [compound 473] | 1 to 100
Oc1nsc(Nc2ccc(Oc3ccccc3)cc2)c1-c1nnn[nH]1 [compound 136] | > 500
N=C(NCCc1cccs1)c1c(O)nsc1Nc1ccc(Oc2ccccc2)cc1 [Cpd 18] | 100 to 500
N=C(NCC1CCCCC1)c1c(O)nsc1Nc1ccc(N2CCOCC2)nc1 [compound 132] | > 500
CCC[C@H]1CC[C@H](c2ccc(Nc3snc(O)c3C(=N)NCC(C)(C)CO)cc2)CC1 [compound 165] | 100 to 500
N=C(c1c(O)nsc1Nc1ccc(Oc2cc(F)cc(F)c2)cc1)N1CCCCC1 [compound 417] | > 500
Cc1ccc(Nc2snc(O)c2C(=N)NCCN2CCOCC2)cc1 [Cpd 4] | 100 to 500
N=C(NCc1ccccn1)c1c(O)nsc1Nc1ccc(Oc2cc(F)cc(F)c2)cc1 [compound 415] | 1 to 100
N=C(NCCO)c1c(O)nsc1Nc1ccc(Oc2ccc(F)cc2)c(Br)c1 [compound 207] | > 500
CC(CO)NC(=N)c1c(O)nsc1Nc1ccc(Oc2ccc(Cl)cc2)c(Cl)c1 (stereo not shown) [compound 359] | 100 to 500
CC(Nc1snc(O)c1C(=N)NCC1CCCCC1)c1ccccc1 (stereo not shown) [compound 118] | > 500
N=C(NCCO)c1c(O)nsc1Nc1ccc(I)cc1 [compound 217] | > 500
Cc1cc(C#N)cc(C)c1Oc1ccc(Nc2snc(O)c2C(=N)NC(C)C)cc1Cl [compound 285] | > 500
N/C(=N\CC1CCCCC1)c1c(O)nsc1Nc1ccccc1C(=O)NCC1CCCCC1 [compound 88] | > 500
N=C(NCCCCO)c1c(O)nsc1Nc1ccc(Oc2ccc(Cl)cc2)cc1 [compound 158] | 100 to 500
N=C(NCCCO)c1c(O)nsc1NCC1CCCCC1 [compound 125] | > 500

Structure (SMILES) | IC50 [nM]
CC(C)CCNC(=N)c1nsc(Nc2ccc(Oc3ccccc3)cc2)c1O [compound 43] | 1 to 100
CC(O)CNC(=N)c1c(O)nsc1Nc1ccc(Oc2cc(F)cc(F)c2)cc1 (stereo not shown) [compound 422] | 1 to 100
N=C(NCCO)c1c(O)nsc1Nc1ccc(Oc2ccc(Cl)cc2Cl)cc1 [compound 221] | 100 to 500
N=C(NCCc1cccc(F)c1)c1c(O)nsc1Nc1ccc(Oc2ccccc2)cc1 [Cpd 17] | 100 to 500
COc1ccc(Nc2snc(O)c2C(=N)NCc2ccc(C(F)(F)F)nc2)c(OC)n1 [compound 184] | > 500
N=C(NN1CCCCC1)c1c(O)nsc1Nc1ccc(Oc2cc(F)cc(F)c2)cc1 [compound 435] | 1 to 100
CC(CO)NC(=N)c1c(O)nsc1Nc1ccc(Oc2cc(C(F)(F)F)ccc2Cl)cc1F (stereo not shown) [compound 394] | 1 to 100
Cc1ccc(S(=O)(=O)NC(=N)c2c(O)nsc2Nc2ccc(Oc3ccccc3)cc2)cc1 [compound 151] | > 500
N=C(NCC1CCCO1)c1c(O)nsc1Nc1ccc(Oc2cc(F)cc(F)c2)cc1 (stereo not shown) [compound 414] | 1 to 100
COC(=O)c1cccc(Nc2snc(O)c2C(=N)NC(C)CO)c1C (stereo not shown) [compound 490] | 100 to 500
N=C(NCCOc1ccccc1)c1c(O)nsc1Nc1ccc(Oc2ccccc2)cc1 [compound 36] | 100 to 500
CC(CO)NC(=N)c1c(O)nsc1Nc1ccc(Oc2ccc(Cl)cc2Cl)c(F)c1 (stereo not shown) [compound 374] | 1 to 100
CC(CO)NC(=N)c1c(O)nsc1Nc1ccc(Oc2ccc(F)cc2)c(Cl)c1 (stereo not shown) [compound 392] | 100 to 500
N=C(NCC1CCCCC1)c1c(O)nsc1Nc1cc(C(F)(F)F)cc(C(F)(F)F)c1 [compound 66] | > 500
CC(C)NC(=N)c1c(O)nsc1Nc1cc(Cl)cc(Cl)c1 [compound 224] | 100 to 500
Cc1cc(Oc2ccc(F)cc2Cl)ccc1Nc1snc(O)c1C(=N)N(O)Cc1ccccc1 [compound 463] | 1 to 100

Same assay, conditions: Table 2, Ar1-A contains an amido or indolo group; read-out: IC 50

Structure (SMILES) | IC50 [nM]
N=C(NCCCCO)c1c(O)nsc1Nc1ccc(C(=O)Nc2ccccc2)cc1 [E-6] | > 1000
CC(C)NC(=N)c1c(O)nsc1Nc1ccc(C(=O)NC(C)C)cc1 [E-9] | 200 to 1000
N=C(NCC1CCCCC1)c1c(O)nsc1Nc1ccc(S(=O)(=O)Nc2ccccc2)cc1 [E-2] | > 1000
N=C(N)c1c(O)nsc1Nc1ccc(C(=O)N2CCc3cc(Br)ccc32)cc1 [E-20] | 1 to 200
CC(C)NC(=N)c1c(O)nsc1Nc1ccc(C(=O)N2CCc3ccccc32)cc1 [E-10] | 1 to 200

Same assay, conditions: Table 3, benzamides of formula X; read-out: IC 50

Structure (SMILES) | IC50 [nM]
CC(CO)NC(=N)c1c(O)nsc1Nc1ccc(C(=O)Nc2ccccc2)cc1 (stereo not shown) [drawing 812] | 1 to 100

Same assay, conditions: Table 4, R' is (CH2)1 or 2-G; read-out: IC50

Structure (SMILES) | IC50 [nM]
N=C(NCC1CCCCC1)c1c(O)nsc1Nc1ccc(Oc2cncnc2)cc1 [drawing 827] | > 500
N=C(NCc1ccccc1)c1c(O)nsc1Nc1ccc(C(=O)c2ccccc2)cc1 | 100 to 500
Cc1ccc(Oc2ccc(Nc3snc(O)c3C(=N)NCC3CCCCC3)cn2)cn1 [drawing 825] | > 500
N=C(NCCN1CCNCC1)c1c(O)nsc1Nc1ccc(Oc2cc(F)cc(F)c2)cc1 [drawing 829] | 1 to 100
